Test system: VSMC-MYC
Test: Chromatin cleavage assay in VSMC-MYC
Type: cell-based, rat
Settings: 1 mM ouabain, 1 hr preincubation, 6 hours
Method: Cells were incubated in K^+-containing medium consisting of 91 mM NaCl, 5 mM KCl, 0.9 mM NaH2PO4, 44 mM NaHCO3, 1.8 mM CaCl2, 0.8 mM MgCl2, 33 mM HEPES and 5 mM D-glucose (pH 7.4) (lines 1 and 2) or in K^+-depleted medium (equimolar substitution of KCl by NaCl, line 3) with or without 10% calf serum (CS) and 1 mM ouabain as indicated. In experiments with VSMC-MYC and VSMC-E1A, cells were preincubated for 1 hr with ouabain or with K^+-depleted medium in the presence of CS and then subjected to treatment with serum-free media. After 24 hours (VSMC) or 6 hours (VSMC-MYC and VSMC-E1A), the content of chromatin fragments was measured as described in Experimental Procedures. […]
Chromatin cleavage assay. […] After 15 min, the cell lysate was transferred to Ependorf tubes, sedimented (12,000 rpm, 10 mm), and 1 ml of supernatant was transferred for the measurement of radioactivity (A1t). The remaining radioactivity from pellets and wells was extracted with 0.5 ml of 1% SDS/4 mM EDTA mixture, combined and counted (A2). Chromatin cleavage was quantified as the content of chromatin fragments normalized by total content of [^3H]-labeled DNA in accordance with the equation [1.5×(A1t−A1o)/(A2+A1t−1.5A1o)]×100% where A1o is the value of A1t before induction of apoptosis. […]

SMILES: C[C@@H]1O[C@@H](O[C@H]2C[C@@H](O)[C@]3(CO)[C@H]4[C@H](O)C[C@]5(C)[C@@H](C6=CC(=O)OC6)CC[C@]5(O)[C@@H]4CC[C@]3(O)C2)[C@H](O)[C@H](O)[C@H]1O [Ouabain, 1β,3β,5,11α,14,19-hexahydroxycard 20 [22]-enolide 3-[6-deoxy-α-L-mannopyrano-sidel]]
- Chromatin fragments (%) (10% CS): 1.4 ± 0.3%
- Chromatin fragments (%) (CS-free): 3.1 ± 0.4 %
